Laboratory results published in PubChem BioAssay (NCI).
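In this assay, cells in 96-well plates receive the compound at five concentrations for 48 hours. Endpoints are linearly interpolated between the surrounding concentrations. GI50: concentration for 50% inhibition of growth. At the TGI there is no net growth.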

How the values were obtained:
Assay in all cases: inhibition of tumour cell growth, NCI panel, 48 h
NCI-H460 lung = test system: NCI-H460 lung
NCI-H522 lung = test system: NCI-H522 lung
NCI/ADR-RES ovarian = test system: NCI/ADR-RES ovarian
OVCAR-3 ovarian = test system: OVCAR-3 ovarian
OVCAR-4 ovarian = test system: OVCAR-4 ovarian
OVCAR-5 ovarian = test system: OVCAR-5 ovarian
OVCAR-8 ovarian = test system: OVCAR-8 ovarian
PC-3 prostate = test system: PC-3 prostate
RXF 393 renal = test system: RXF 393 renal
SF-268 CNS = test system: SF-268 CNS
SF-295 CNS = test system: SF-295 CNS
SF-539 CNS = test system: SF-539 CNS
SK-MEL-2 melanoma = test system: SK-MEL-2 melanoma
SK-MEL-28 melanoma = test system: SK-MEL-28 melanoma
SK-MEL-5 melanoma = test system: SK-MEL-5 melanoma
SK-OV-3 ovarian = test system: SK-OV-3 ovarian
SNB-19 CNS = test system: SNB-19 CNS
SNB-75 CNS = test system: SNB-75 CNS
SW-620 colon = test system: SW-620 colon
T-47D breast = test system: T-47D breast
TK-10 renal = test system: TK-10 renal
U251 CNS = test system: U251 CNS
UACC-257 melanoma = test system: UACC-257 melanoma
UACC-62 melanoma = test system: UACC-62 melanoma
UO-31 renal = test system: UO-31 renal

Q: Which GI50 (NCI-H460 lung) does the source give for `COC(=O)c1cc(O)c2cc3c(cc2c1-c1cc(OC)c(OC)c(OC)c1)OCO3` here?
A: 0.686 µM

Q: And the TGI (NCI-H460 lung)?
A: > 100 µM

Q: And the GI50 (NCI-H522 lung)?
A: 0.272 µM

Q: And the TGI (NCI-H522 lung)?
A: 1.13 µM

Q: And the GI50 (NCI/ADR-RES ovarian)?
A: 0.462 µM

Q: And the TGI (NCI/ADR-RES ovarian)?
A: > 100 µM

Q: And the GI50 (OVCAR-3 ovarian)?
A: 0.325 µM

Q: What about the TGI (OVCAR-3 ovarian) of the same compound?
A: 1.15 µM

Q: And the GI50 (OVCAR-4 ovarian)?
A: > 100 µM

Q: What about the TGI (OVCAR-4 ovarian) of the same compound?
A: > 100 µM

Q: And the GI50 (OVCAR-5 ovarian)?
A: 50.2 µM

Q: And the TGI (OVCAR-5 ovarian)?
A: > 100 µM

Q: And the GI50 (OVCAR-8 ovarian)?
A: 11.3 µM

Q: What about the TGI (OVCAR-8 ovarian) of the same compound?
A: > 100 µM

Q: What about the GI50 (PC-3 prostate) of the same compound?
A: 2.01 µM

Q: And the TGI (PC-3 prostate)?
A: > 100 µM

Q: And the GI50 (RXF 393 renal)?
A: 2.95 µM

Q: And the TGI (RXF 393 renal)?
A: > 100 µM

Q: What about the GI50 (SF-268 CNS) of the same compound?
A: 2.94 µM

Q: And the TGI (SF-268 CNS)?
A: > 100 µM

Q: What about the GI50 (SF-295 CNS) of the same compound?
A: 0.536 µM

Q: And the TGI (SF-295 CNS)?
A: 5.03 µM

Q: And the GI50 (SF-539 CNS)?
A: 3.34 µM

Q: What about the TGI (SF-539 CNS) of the same compound?
A: > 100 µM

Q: And the GI50 (SK-MEL-2 melanoma)?
A: 0.4 µM

Q: And the TGI (SK-MEL-2 melanoma)?
A: 6.21 µM

Q: And the GI50 (SK-MEL-28 melanoma)?
A: 5.34 µM

Q: What about the TGI (SK-MEL-28 melanoma) of the same compound?
A: > 100 µM

Q: What about the GI50 (SK-MEL-5 melanoma) of the same compound?
A: 0.891 µM

Q: What about the TGI (SK-MEL-5 melanoma) of the same compound?
A: > 100 µM

Q: What about the GI50 (SK-OV-3 ovarian) of the same compound?
A: 3.02 µM

Q: What about the TGI (SK-OV-3 ovarian) of the same compound?
A: > 100 µM

Q: What about the GI50 (SNB-19 CNS) of the same compound?
A: 3.57 µM

Q: What about the TGI (SNB-19 CNS) of the same compound?
A: > 100 µM

Q: What about the GI50 (SNB-75 CNS) of the same compound?
A: 1.37 µM

Q: What about the TGI (SNB-75 CNS) of the same compound?
A: 32 µM

Q: What about the GI50 (SW-620 colon) of the same compound?
A: 0.496 µM

Q: What about the TGI (SW-620 colon) of the same compound?
A: > 100 µM

Q: What about the GI50 (T-47D breast) of the same compound?
A: 2.38 µM

Q: What about the TGI (T-47D breast) of the same compound?
A: > 100 µM

Q: What about the GI50 (TK-10 renal) of the same compound?
A: 2.16 µM

Q: What about the TGI (TK-10 renal) of the same compound?
A: > 100 µM

Q: And the GI50 (U251 CNS)?
A: 0.577 µM

Q: What about the TGI (U251 CNS) of the same compound?
A: > 100 µM

Q: And the GI50 (UACC-257 melanoma)?
A: 1.8 µM

Q: And the TGI (UACC-257 melanoma)?
A: > 100 µM

Q: What about the GI50 (UACC-62 melanoma) of the same compound?
A: 1.17 µM

Q: What about the TGI (UACC-62 melanoma) of the same compound?
A: > 100 µM

Q: What about the GI50 (UO-31 renal) of the same compound?
A: 4.92 µM

Q: And the TGI (UO-31 renal)?
A: > 100 µM
